Reference: patent US4457864A, “Synthetic analogues of α-melanotropin” (University Patents, Inc., priority 1981, dated 1984)
“Also recorded” adds a separate entry of the source. Where two headings read alike, the source gives them in different places.

How the values were obtained:
[1] = literature reports, cited from earlier work
[2] = cited from earlier work
[3] = tested on: adenylate cyclase in Cloudman S-91 mouse melanoma tumors; conditions: Sawyer et al.; cited from earlier work
frog (Rana pipiens) = assay: in vivo skin darkening (reflectance) in frogs after a single subcutaneous injection
Text: (§1) [Nle^4, D-Phe^7 ]-α-MSH was examined for its biological effects on melanosome dispersion in vivo, using the frog (Rana pipiens), and the lizard (Anolis carolinensis). See, Hadley, et al. Science, 213, pp. 1025-1027 (1981).
Frogs of both sexes were placed in white plastic containers with a small amount of water under overhead illumi-nation. Under these conditions, the animals became light green in color, presumably because they were not releasing any endogenous α-MSH. Forty-eight hours later, light reflectance from the dorsal surface of the animals was measured with a Photovolt reflectometer. At this time, the frogs were injected subcutaneously with Ringer solution (controls) or Ringer solutions containing α-MSH, [Nle^4 ]-α-MSH, or [Nle^4, D-Phe^7 ]-α-MSH (100 μl of a 10^-4 M solution per 10 g of body weight) to provide a final body concentration of approximately 18 μg/10 g. Subsequent reflectance values were taken at 2- to 3-day intervals for 6 weeks.

amphibian melanophores = conditions: Sawyer et al.; cited from earlier work
[4] = resistance to serum proteolytic enzyme degradation, residual activity by in vitro frog skin bioassay; type: in vitro ADME; conditions: 10 nM peptide, 37° C., Ham's F-10 with 10% horse serum and 2% fetal calf serum, up to 72 hours; FIG. 3
Method: Synthetic α-MSH, [Nle^4 ]-α-MSH and [Nle^4, D-Phe^7 ]-α-MSH were incubated (37° C.) under sterile conditions in Corning flasks containing Ham's F-10 media containing 10% horse serum and 2% fetal calf serum. Samples of the media containing the peptides (10 nM) were removed at time zero and at 24, 48 and 72 hours. The samples were immediately frozen and assayed for biological activity using the in vitro frog skin bioassay.

[5] = tested on: lizard (Anolis carolinensis); assay: in vivo skin darkening in lizards after a single injection; conditions: 18 μg/10 g final body concentration
Text: as §1

[6] = tested on: Cloudman S-91 NCTC 3960 (CCL 53.1) melanoma cells; assay: tyrosinase activity of melanoma cells in tissue culture (3H2O release from [3H]tyrosine); type: cell-based, mouse; conditions: 0.1 μM melanotropin, exposure 0.5, 4 and 8 hr, then 24 hr with [3H]tyrosine; FIG. 2
Method: Cloudman S-91 NCTC 3960 (CCL 53.1) melanoma cells were obtained from the American Type Culture Collection Cell Repository and were grown and maintained as described in Fuller, et. al. Pigment Cell, 4 pp. 97-104 (1979). Melanoma cells (2×10^5) were seeded in 25 cm^2 flasks and allowed to attach overnight. At time t=0, the medium in all the flasks was replaced with 4 ml of medium containing 0.1 μM melanotropin (i.e., α-MSH, [Nle^4 ]-α-MSH, or [Nle^4, D-Phe^7 ]-α-MSH) or a control medium containing no melanotropin. At selected time intervals (t=0.5, 4, and 8 hr.) the control medium and melanotropin-containing medium was removed. The cells were carefully rinsed three times with fresh melanotropin-free medium and then exposed to fresh melanotropinfree medium containing [^3 H]-tyrosine (specific activity 48 Ci/mmol; 1 Ci=3.7×10^10 becquerels) at 1 μCi/ml. After 24 hr, this medium was removed and the tyrosinase activity of the melanoma cells was determined by assaying for the ^3 H2 O released from the [^3 H]tyrosine by the action of tyrosinase.
Tyrosinase activities are expressed as percent activity of control cells (i.e., cells not exposed to melanotropin). Each bar represents the mean of four determinations ±SEM.

[7] = tested on: adenylate cyclase in Cloudman S-91 mouse melanoma tumors; assay: retention of adenylate cyclase activity after iodination; type: biochemical; conditions: iodinated through use of lacto peroxidase or iodogen
Method: (§2) The relative effects of α-MSH, [Nle^4 ]-α-MSH and [Nle^4, D-Phe^7 ]-α-MSH on mammalian melanoma adenylate cyclase activity in vitro were determined by assaying [^α-32 P] ATP conversion to [^32 P]cAMP in Cloudman S-91 mouse melanoma tumors as described in Sawyer, et al., supra. [^32 P]cAMP was isolated, purified and dectected according to Salomon et al., Anal. Biochem., 58, pp. 541-48 (1974).
The procedures of Hunter, et al., Nature, 194, pp. 495-496 (1962) were applied to [Nle^4, D-Phe^7 ]-α-MSH and the resultant compound was tested for adenylate cyclase activity as in Example 2.

[8] = tested on: frog (Rana pipiens) skin melanophores; assay: in vitro frog skin bioassay, duration of melanosome dispersion; type: cell-based
Method: Variation in biological effects of α-MSH analogues are generally discussed in terms of "potentiation" (increased activity relative to naturally-occurring α-MSH) and "prolongation". Such effects are measured by the classic frog skin bioassay system. See, Shizume, et al., Endocrinology, 54, 553-560 (1954). Because α-MSH has an extremely short half-life in serum (about 2 minutes), synthetic analogues having greater serum stability in addition to greater potency and prolongation characteristics have been sought.
[Nle^4, D-Phe^7 ]-α-MSH was examined with respect to the duration of its ability to stimulate melanosome dispersion in vitro using the frog (Rana pipiens) skin bioassay as described in Shizume, Endocrinology 54, 553-560 (1954).

[9] = tested on: adenylate cyclase in Cloudman S-91 mouse melanoma tumors; assay: melanoma adenylate cyclase activity in vitro ([α-32P]ATP conversion to [32P]cAMP); type: biochemical
Method: as §2

[10] = cited from earlier work; remark: listed apart in the source
[11] = s.c., 18 μg/10 g, single injection

## [D-Ser^1]-α-MSH
[1]
  potency / activity relative to the natural hormone: diminished potency
[1]; listed as D-Ser^1
  potency / activity relative to the natural hormone: no more active than the native hormone

## [D-Tyr^2 ]-α-MSH
[1]
  potency / activity relative to the natural hormone: significantly less potent; also recorded: diminished potency

## [Nle^4 ]-α-MSH
[2]; after chloramine-T, further contact with sodium iodide
  biological activity upon subsequent exposure to sodium iodide: inactivated; also recorded: loses activity
[2]; chloramine-T, oxidant used in peptide iodination
  biological activity after chloramine-T treatment: resistant to inactivation; also recorded: retains activity
[3]
  potency in stimulating melanoma adenylate cyclase activity relative to α-MSH: approximately twice as potent
Frog (Rana pipiens); [11]
  duration of darkening effect compared with α-MSH: effective for only a slightly longer period than α-MSH
Amphibian melanophores
  potency in dispersing amphibian melanophores relative to α-MSH: approximately twice as potent
[4]
  loss of biological activity on incubation in serum-containing medium: lost essentially all biological activity

## [Nle^4, D-Phe^7 ]-α-MSH
Frog (Rana pipiens); s.c., 18 μg/10 g final body concentration
  degree of skin darkening in vivo: Maximum darkening
Frog (Rana pipiens); s.c., 18 μg/10 g, 6 weeks after single injection
  skin darkening remaining at 6 weeks: half-maximum darkening
Frog (Rana pipiens); single injection, 0.18 μg/10 g versus 18 μg/10 g final body concentration
  darkening effect of lower dose compared with higher dose: nearly as effective as the higher dose
[4]
  loss of biological activity on incubation in serum-containing medium: almost totally resistant to loss of biological activity
[5]
  duration of prolonged skin darkening: about 3 days
[6]
  tyrosinase activity compared with α-MSH and [Nle4]-α-MSH: much more active
[7]
  adenylate cyclase activity after iodination: fully retained its activity
[8]
  duration of melanosome dispersion in vitro: "prolonged" biological effect superior to α-MSH and [Nle^4 ]-α-MSH
[9]; FIG. 1
  maximal adenylate cyclase activity compared with α-MSH and [Nle4]-α-MSH: same maximal adenylate cyclase activity
[9]; dose-response curves of FIG. 1, Cloudman S-91 mouse melanoma
  potency in stimulating adenylate cyclase relative to the native hormone (α-MSH): 26 times

## α-Melanotropin [α-MSH]
[2]; iodination for radiolabelling
  biological activity upon oxidative iodination: essentially inactivated; also recorded: loses biological activity
Frog (Rana pipiens); [11]
  time by which the darkening effect was totally lost: ≤ 2 days
[10]
  half-life in serum: about 2 minutes
